This note sets out measurements from ChEMBL document CHEMBL4118093, “Identification of a Hit Series of Antileishmanial Compounds through the Use of Mixture-Based Libraries” (ACS Med Chem Lett, 2017).

The test system of data set [1] is Leishmania donovani. The experiment in a line: Antileishmanial activity against Leishmania donovani axenic amastigotes infected in mouse J774 cells measured after 72 hrs by Draq5 staining based high content screening assay. Format: functional, organism-based. Particulars: J774, 72 h.
The subject of a further data set is J774. The data set can be described thus: Cytotoxicity against mouse J774 cells.
For data set [2], the system named is Leishmania donovani. The experiment in a line: Antileishmanial activity against Leishmania donovani axenic amastigotes at 2.5 uM after 72 hrs by Celltiter reagent based assay relative to control. Format: functional.
Data set [3] concerns Leishmania donovani. The data set can be described thus: Antileishmanial activity against Leishmania donovani axenic amastigotes at 5 uM after 72 hrs by Celltiter reagent based assay relative to control. Format: functional.
A short description of data set [4]: Selectivity index, ratio of IC50 for mouse J774 cells to IC50 for Leishmania donovani axenic amastigotes infected in mouse J774 cells. Format: toxicity, cell-based. The settings on record: read-out: Ratio IC50.

Turning to `CCCCCCCN1C(=N)N(CCCC[C@H]2CNC(=N)N2CCc2cccc(C(F)(F)F)c2)C[C@H]1Cc1ccc2ccccc2c1`, the IC50 with Leishmania donovani [1] was 3.5 µM; in the data set on J774, 50 µM. The same compound had an inhibition at 2.5 µM in the data set with Leishmania donovani [2] of 37%. Further, 5 µM produced 100% inhibition in the data set on Leishmania donovani [3]. In data set [4], the selectivity ratio turned out to be 14.
With `N=C1NC[C@H](CCCCN2C[C@H](CC3CCCCC3)N(CCCCC3CCCCC3)C2=N)N1CCc1cccc(C(F)(F)F)c1`, the results for the IC50 in the data set on Leishmania donovani [1] and in the data set with J774 were 1.3 µM and 26 µM, respectively. Further, testing at 2.5 µM in the data set with Leishmania donovani [2] gave an inhibition of 0%. Besides, 5 µM produced 94% inhibition in the data set on Leishmania donovani [3]. For the same compound, the selectivity ratio in data set [4] is 14.
As for `CCCC[C@H]1CN(CCCC[C@H]2CNC(=N)N2CCc2cccc(C(F)(F)F)c2)C(=N)N1CCc1ccc(-c2ccccc2)cc1`, the results for the IC50 with Leishmania donovani [1] and with J774 were 0.3 µM and 28 µM, respectively. This compound also showed an inhibition at 2.5 µM in the data set with Leishmania donovani [2] of 47%. This compound also came in with an inhibition at 5 µM in the data set with Leishmania donovani [3] of 100%. The selectivity ratio in data set [4] lay within 88 to 89.
Regarding `CCCC[C@H]1CN(CCCC[C@H]2CNC(=N)N2CCC23CC4CC(CC(C4)C2)C3)C(=N)N1CCCCC1CCCCC1`, the IC50 stood at 0.6 µM in the data set on Leishmania donovani [1] and 27 µM in the data set with J774. Testing at 2.5 µM in the data set with Leishmania donovani [2] gave an inhibition of 11%. In the data set with Leishmania donovani [3], the inhibition at 5 µM was determined as 8%. The selectivity ratio in data set [4] was determined as 41.
`N=C1NC[C@H](CCCCN2C[C@@H](Cc3ccc4ccccc4c3)N(CCCCC3CCCCC3)C2=N)N1CCc1cccc(C(F)(F)F)c1`: the IC50 was 1.8 µM in the data set on Leishmania donovani [1] and 50 µM in the data set on J774. The same compound displayed an inhibition at 2.5 µM with Leishmania donovani [2] of 6%. At 5 µM the inhibition in the data set on Leishmania donovani [3] was 75%. The selectivity ratio in data set [4] came to 28.
Consider `N=C1NC[C@H](CCCCN2C[C@@H](Cc3ccc4ccccc4c3)N(CCc3ccc(-c4ccccc4)cc3)C2=N)N1CCc1cccc(C(F)(F)F)c1`, for which the half-inhibitory concentration (IC50) in the data set on Leishmania donovani [1] stood at 1.3 µM; in the data set on J774, 50 µM. This compound came in with an inhibition at 2.5 µM in the data set on Leishmania donovani [2] of 0%. At 5 µM the inhibition with Leishmania donovani [3] was 0%. In data set [4], the selectivity ratio was determined as 39.
On to `CCCCCCCN1C(=N)N(CCCC[C@H]2CNC(=N)N2CCCCC2CCCCC2)C[C@H]1Cc1ccc2ccccc2c1`, for which the IC50 was 1.3 µM in the data set on Leishmania donovani [1] and 50 µM in the data set with J774. In addition, testing at 2.5 µM in the data set with Leishmania donovani [2] gave an inhibition of 6%. In the data set on Leishmania donovani [3], this compound returned an inhibition at 5 µM of 97%. Besides, the selectivity ratio in data set [4] worked out at 38.
The matching figures for `N=C1NC[C@H](CCCCN2C[C@@H](Cc3ccc4ccccc4c3)N(CCc3ccc(-c4ccccc4)cc3)C2=N)N1CCCCC1CCCCC1`: more than 5 µM, 34 µM, 15%, 95% and less than 7.
As for `N=C1NC[C@H](CCCCN2C[C@@H](Cc3ccc4ccccc4c3)N(CCCCC3CCCCC3)C2=N)N1CCCCC1CCCCC1`, the IC50 in the data set on Leishmania donovani [1] came to 0.9 µM; in the data set with J774, 50 µM. Testing at 2.5 µM in the data set with Leishmania donovani [2] gave an inhibition of 0%. In the data set on Leishmania donovani [3], this compound had an inhibition at 5 µM of 0%. In addition, the selectivity ratio in data set [4] was found to be 56.
`CCCCCCCN1C(=N)N(CCCC[C@H]2CNC(=N)N2CCC23CC4CC(CC(C4)C2)C3)C[C@@H]1CC1CCCCC1`: the IC50 with Leishmania donovani [1] was found to be 2.5 µM; with J774 it was 26 µM. Further, at 2.5 µM the inhibition with Leishmania donovani [2] was 14%. Moreover, 5 µM produced 85% inhibition in the data set with Leishmania donovani [3]. In data set [4], the selectivity ratio worked out at 11.
As to `N=C1NC[C@H](CCCCN2C[C@@H](Cc3ccc4ccccc4c3)N(CCc3ccc(-c4ccccc4)cc3)C2=N)N1CCC12CC3CC(CC(C3)C1)C2`, the IC50 in the data set on Leishmania donovani [1] turned out to be 1.7 µM; in the data set on J774, 41 µM. Besides, in the data set on Leishmania donovani [2], testing at 2.5 µM gave an inhibition of 0%. Moreover, the inhibition at 5 µM with Leishmania donovani [3] was determined as 0%. Besides, in data set [4], the selectivity ratio was found to be 25.
For `CCCCCCCN1C(=N)N(CCCC[C@H]2CNC(=N)N2CCc2cccc(C(F)(F)F)c2)C[C@@H]1CC1CCCCC1`, the IC50 in the data set on Leishmania donovani [1] was more than 5 µM; in the data set on J774, 50 µM. In the data set on Leishmania donovani [2], this compound displayed an inhibition at 2.5 µM of 0%. This compound also yielded an inhibition at 5 µM in the data set with Leishmania donovani [3] of 6%. For the same compound, the selectivity ratio in data set [4] is less than 10.
Consider `N=C1NC[C@H](CCCCN2C[C@H](CC3CCCCC3)N(CCc3ccc(-c4ccccc4)cc3)C2=N)N1CCc1cccc(C(F)(F)F)c1`, for which the IC50 with Leishmania donovani [1] is more than 5 µM; in the data set on J774, 46 µM. At 2.5 µM the inhibition in the data set with Leishmania donovani [2] was 35%. In the data set on Leishmania donovani [3], this compound displayed an inhibition at 5 µM of 97%. In addition, in data set [4], the selectivity ratio is less than 9.
The matching figures for `CCCCCCCN1C(=N)N(CCCC[C@H]2CNC(=N)N2CCC23CC4CC(CC(C4)C2)C3)C[C@H]1Cc1ccc2ccccc2c1`: 0.6 µM, 36 µM, 0%, 0% and 57.
On to `CCCC[C@H]1CN(CCCC[C@H]2CNC(=N)N2CCCCC2CCCCC2)C(=N)N1CCc1ccc(-c2ccccc2)cc1`, for which the IC50 stood at 5 µM with Leishmania donovani [1] and 12 µM in the data set on J774. The same compound came in with an inhibition at 2.5 µM in the data set on Leishmania donovani [2] of 78%. In the data set with Leishmania donovani [3], this compound came in with an inhibition at 5 µM of 98%. Also, the selectivity ratio in data set [4] is 2.
As for `CCCCCCCN1C(=N)N(CCCC[C@H]2CNC(=N)N2CCc2cccc(C(F)(F)F)c2)C[C@@H]1CCCC`, the figures for the 50% inhibitory concentration (IC50) with Leishmania donovani [1] and with J774 were 0.6 µM and 48 µM, respectively. For the same compound, the inhibition at 2.5 µM in the data set on Leishmania donovani [2] was 9%. In the data set on Leishmania donovani [3], this compound had an inhibition at 5 µM of 26%. Besides, the selectivity ratio in data set [4] stood at 81.

Usually IC50 stands for the concentration needed to halve the response being measured. The low end stands for inhibition by little substance, the high end for a need for much substance. Broadly, the inhibition is the relative decrease from the control value, in per cent.
